pIC50: −log10 of the molar value.
Key:
Assay type in all cases: biochemical
Zap-70 = target: T1, Zap-70 (Homo sapiens, UniProt P43403); assay: Kinase inhibition assay (33P transfer), Zap-70; details: Table 3; read-out: Zap-1
T1 construct: Kinases are expressed as either kinase domains or full length constructs; made in house
T1 sequence (P43403 1-619): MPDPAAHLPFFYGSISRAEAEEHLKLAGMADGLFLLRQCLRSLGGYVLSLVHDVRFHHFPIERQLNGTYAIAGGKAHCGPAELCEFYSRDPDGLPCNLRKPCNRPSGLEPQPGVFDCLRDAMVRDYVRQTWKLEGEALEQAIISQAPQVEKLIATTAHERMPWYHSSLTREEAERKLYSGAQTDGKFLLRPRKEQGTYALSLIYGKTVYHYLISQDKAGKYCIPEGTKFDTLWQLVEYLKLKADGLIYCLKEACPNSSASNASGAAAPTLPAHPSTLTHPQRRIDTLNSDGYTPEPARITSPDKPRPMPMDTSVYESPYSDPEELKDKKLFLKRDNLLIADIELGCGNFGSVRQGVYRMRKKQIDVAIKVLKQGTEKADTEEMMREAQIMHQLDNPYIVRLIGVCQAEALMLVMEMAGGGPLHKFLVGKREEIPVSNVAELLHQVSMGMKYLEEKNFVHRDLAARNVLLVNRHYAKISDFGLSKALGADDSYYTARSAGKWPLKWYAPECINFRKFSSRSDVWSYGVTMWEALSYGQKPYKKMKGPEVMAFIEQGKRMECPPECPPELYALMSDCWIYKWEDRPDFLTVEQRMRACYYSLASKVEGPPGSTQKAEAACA
Source text: (§1) The inhibitor compounds described herein are screened in the following manner. Kinases suitable for use in the following protocol to determine kinase activity of the compounds described herein include, -but are not limited to: Lck, Lyn, Src, Fyn, Syk, Zap-70, Itk, Tec, Btk, EGFR, ErbB2, Kdr, Flt-1, Flt-3, Tek, c-Met, InsR, and AKT.
(§2) Kinases are expressed as either kinase domains or full length constructs fused to glutathione S-transferase (GST) or polyHistidine tagged fusion proteins in either E. colior Baculovirus-High Five expression systems. […] In some instances, kinases are co-expressed or mixed with purified or partially purified regulatory polypeptides prior to measurement of activity.
(§3) Briefly, The transfer of ^33PO4 from ATP to the synthetic substrates poly(Glu, Tyr) 4:1 or poly(Arg, Ser) 3:1 attached to the bioactive surface of microtiter plates serves as the basis to evaluate enzyme activity. After an incubation period, the amount of phosphate transferred is measured by first washing the plate with 0.5% phosphoric acid, adding liquid scintillant, and then counting in a liquid scintillation detector.

c-Met = target: T2, c-Met (Homo sapiens, UniProt P08581); assay: Kinase inhibition assay (33P transfer), c-Met; details: Table 2, kinase inhibition class; read-out: Met-1
T2 construct: Kinases are expressed as either kinase domains or full length constructs; made in house
T2 sequence (P08581 25-1390): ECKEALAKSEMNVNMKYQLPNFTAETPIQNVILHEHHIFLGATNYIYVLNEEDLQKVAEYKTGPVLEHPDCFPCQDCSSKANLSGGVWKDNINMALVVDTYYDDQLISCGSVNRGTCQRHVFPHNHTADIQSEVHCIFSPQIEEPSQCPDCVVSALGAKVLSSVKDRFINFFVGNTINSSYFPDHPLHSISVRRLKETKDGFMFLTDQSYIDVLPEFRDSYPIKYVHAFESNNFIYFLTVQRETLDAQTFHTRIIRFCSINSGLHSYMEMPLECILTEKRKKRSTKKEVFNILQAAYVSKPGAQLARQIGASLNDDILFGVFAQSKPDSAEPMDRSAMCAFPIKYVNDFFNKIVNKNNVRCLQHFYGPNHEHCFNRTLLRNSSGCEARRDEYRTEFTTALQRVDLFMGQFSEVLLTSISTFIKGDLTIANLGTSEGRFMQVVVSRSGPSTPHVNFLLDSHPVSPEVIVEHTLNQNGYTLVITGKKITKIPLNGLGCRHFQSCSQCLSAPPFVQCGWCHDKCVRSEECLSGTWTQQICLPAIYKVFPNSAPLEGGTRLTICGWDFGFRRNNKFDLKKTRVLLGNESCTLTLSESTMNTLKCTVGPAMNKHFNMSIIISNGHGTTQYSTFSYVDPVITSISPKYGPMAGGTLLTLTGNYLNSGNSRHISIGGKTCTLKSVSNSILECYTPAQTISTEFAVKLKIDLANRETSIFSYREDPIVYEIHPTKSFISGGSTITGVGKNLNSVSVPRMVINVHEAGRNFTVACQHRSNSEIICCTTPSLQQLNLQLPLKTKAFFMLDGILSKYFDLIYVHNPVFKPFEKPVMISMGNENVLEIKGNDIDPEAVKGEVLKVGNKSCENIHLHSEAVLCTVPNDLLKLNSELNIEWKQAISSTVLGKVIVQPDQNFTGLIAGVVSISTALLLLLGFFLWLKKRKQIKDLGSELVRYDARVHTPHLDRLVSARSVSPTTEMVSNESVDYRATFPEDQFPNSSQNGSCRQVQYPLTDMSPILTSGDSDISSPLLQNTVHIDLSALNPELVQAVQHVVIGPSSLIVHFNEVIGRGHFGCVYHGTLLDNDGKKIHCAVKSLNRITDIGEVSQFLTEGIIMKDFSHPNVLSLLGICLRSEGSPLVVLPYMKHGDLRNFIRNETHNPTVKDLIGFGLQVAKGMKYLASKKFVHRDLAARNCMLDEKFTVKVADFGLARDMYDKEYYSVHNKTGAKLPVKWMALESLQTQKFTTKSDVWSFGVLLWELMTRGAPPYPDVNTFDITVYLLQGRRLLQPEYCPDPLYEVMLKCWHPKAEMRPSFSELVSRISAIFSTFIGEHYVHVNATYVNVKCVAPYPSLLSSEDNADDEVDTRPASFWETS
Source text: as §1
(§4) Kinases are expressed as either kinase domains or full length constructs fused to glutathione S-transferase (GST) or polyHistidine tagged fusion proteins in either E. colior Baculovirus-High Five expression systems. They are purified to near homogeneity by affinity chromatography essentially as previously described (Lehr et al., 1996; Gish et al., 1995). In some instances, kinases are co-expressed or mixed with purified or partially purified regulatory polypeptides prior to measurement of activity.
as §3, with “Kinase activity and inhibition are measured essentially by established protocols (Braunwalder et al., 1996). Briefly,” for “Briefly,”, “detector. The IC50 is determined by the concentration of compound that causes a 50% reduction in the amount of […] incorporated onto the substrate bound to the plate.” for “detector.”

Kdr = target: T3, Kdr (Homo sapiens, UniProt P35968); assay: Kinase inhibition assay (33P transfer), Kdr; details: Table 3; read-out: KDR-1
T3 construct: Kinases are expressed as either kinase domains or full length constructs; made in house
T3 sequence (P35968 20-1356, species assumed): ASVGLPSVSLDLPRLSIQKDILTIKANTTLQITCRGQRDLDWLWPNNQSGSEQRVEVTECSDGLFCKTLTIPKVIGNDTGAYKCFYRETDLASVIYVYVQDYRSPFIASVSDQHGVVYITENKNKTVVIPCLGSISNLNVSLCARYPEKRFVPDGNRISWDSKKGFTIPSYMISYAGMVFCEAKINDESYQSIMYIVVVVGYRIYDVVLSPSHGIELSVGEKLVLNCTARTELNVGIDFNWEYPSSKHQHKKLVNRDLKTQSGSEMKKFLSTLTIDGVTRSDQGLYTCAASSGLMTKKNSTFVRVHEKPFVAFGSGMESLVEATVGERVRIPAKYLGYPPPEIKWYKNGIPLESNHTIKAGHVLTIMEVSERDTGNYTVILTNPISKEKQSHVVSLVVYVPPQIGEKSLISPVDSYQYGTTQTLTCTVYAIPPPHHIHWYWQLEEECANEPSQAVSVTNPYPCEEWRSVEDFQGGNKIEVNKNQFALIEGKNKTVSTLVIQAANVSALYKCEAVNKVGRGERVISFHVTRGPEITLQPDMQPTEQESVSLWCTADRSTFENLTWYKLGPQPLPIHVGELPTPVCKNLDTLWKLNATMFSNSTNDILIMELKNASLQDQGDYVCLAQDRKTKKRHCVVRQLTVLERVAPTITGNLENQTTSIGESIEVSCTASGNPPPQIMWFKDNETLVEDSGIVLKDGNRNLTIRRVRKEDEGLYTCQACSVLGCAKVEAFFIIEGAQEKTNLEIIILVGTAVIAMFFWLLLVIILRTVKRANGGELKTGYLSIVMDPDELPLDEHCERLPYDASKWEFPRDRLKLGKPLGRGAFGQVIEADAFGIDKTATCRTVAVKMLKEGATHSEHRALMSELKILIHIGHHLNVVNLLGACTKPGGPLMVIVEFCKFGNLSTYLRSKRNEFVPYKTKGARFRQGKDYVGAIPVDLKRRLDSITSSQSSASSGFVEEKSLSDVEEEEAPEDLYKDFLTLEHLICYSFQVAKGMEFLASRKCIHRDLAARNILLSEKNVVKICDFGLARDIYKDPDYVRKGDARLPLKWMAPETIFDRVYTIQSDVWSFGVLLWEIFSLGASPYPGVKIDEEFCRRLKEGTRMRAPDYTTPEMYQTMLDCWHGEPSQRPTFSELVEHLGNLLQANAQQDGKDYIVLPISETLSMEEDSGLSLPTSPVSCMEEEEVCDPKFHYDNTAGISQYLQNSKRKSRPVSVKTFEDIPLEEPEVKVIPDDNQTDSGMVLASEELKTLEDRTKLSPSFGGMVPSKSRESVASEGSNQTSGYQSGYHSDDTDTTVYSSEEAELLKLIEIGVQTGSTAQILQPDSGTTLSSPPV
Source text: as §1, §2, §3

AKT = target: T4, AKT (Homo sapiens, UniProt Q9Y243); assay: Kinase inhibition assay (33P transfer), AKT; details: Table 2, kinase inhibition class; read-out: AKT3-1
T4 construct: Kinases are expressed as either kinase domains or full length constructs; made in house
T4 sequence (Q9Y243 whole entry, the tested form may be a part): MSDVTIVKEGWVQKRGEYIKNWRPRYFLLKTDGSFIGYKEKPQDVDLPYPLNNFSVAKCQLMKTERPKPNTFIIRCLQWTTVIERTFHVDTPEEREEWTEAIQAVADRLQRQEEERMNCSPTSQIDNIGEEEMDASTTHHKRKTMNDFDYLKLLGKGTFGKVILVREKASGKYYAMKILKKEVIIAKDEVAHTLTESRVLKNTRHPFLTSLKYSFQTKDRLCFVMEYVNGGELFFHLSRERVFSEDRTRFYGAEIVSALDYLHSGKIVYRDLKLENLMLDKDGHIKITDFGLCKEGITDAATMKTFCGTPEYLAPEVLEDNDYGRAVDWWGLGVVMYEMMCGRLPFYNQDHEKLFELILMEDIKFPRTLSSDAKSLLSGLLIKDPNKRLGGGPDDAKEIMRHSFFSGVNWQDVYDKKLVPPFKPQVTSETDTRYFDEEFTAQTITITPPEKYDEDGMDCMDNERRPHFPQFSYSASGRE
Source text: as §1, §2, §3

EGFR = target: T5, EGFR (Homo sapiens, UniProt P00533); assay: Kinase inhibition assay (33P transfer), EGFR; details: Table 2, kinase inhibition class; read-out: EGFR-1
T5 construct: Kinases are expressed as either kinase domains or full length constructs; made in house
T5 sequence (P00533 25-1210, species assumed): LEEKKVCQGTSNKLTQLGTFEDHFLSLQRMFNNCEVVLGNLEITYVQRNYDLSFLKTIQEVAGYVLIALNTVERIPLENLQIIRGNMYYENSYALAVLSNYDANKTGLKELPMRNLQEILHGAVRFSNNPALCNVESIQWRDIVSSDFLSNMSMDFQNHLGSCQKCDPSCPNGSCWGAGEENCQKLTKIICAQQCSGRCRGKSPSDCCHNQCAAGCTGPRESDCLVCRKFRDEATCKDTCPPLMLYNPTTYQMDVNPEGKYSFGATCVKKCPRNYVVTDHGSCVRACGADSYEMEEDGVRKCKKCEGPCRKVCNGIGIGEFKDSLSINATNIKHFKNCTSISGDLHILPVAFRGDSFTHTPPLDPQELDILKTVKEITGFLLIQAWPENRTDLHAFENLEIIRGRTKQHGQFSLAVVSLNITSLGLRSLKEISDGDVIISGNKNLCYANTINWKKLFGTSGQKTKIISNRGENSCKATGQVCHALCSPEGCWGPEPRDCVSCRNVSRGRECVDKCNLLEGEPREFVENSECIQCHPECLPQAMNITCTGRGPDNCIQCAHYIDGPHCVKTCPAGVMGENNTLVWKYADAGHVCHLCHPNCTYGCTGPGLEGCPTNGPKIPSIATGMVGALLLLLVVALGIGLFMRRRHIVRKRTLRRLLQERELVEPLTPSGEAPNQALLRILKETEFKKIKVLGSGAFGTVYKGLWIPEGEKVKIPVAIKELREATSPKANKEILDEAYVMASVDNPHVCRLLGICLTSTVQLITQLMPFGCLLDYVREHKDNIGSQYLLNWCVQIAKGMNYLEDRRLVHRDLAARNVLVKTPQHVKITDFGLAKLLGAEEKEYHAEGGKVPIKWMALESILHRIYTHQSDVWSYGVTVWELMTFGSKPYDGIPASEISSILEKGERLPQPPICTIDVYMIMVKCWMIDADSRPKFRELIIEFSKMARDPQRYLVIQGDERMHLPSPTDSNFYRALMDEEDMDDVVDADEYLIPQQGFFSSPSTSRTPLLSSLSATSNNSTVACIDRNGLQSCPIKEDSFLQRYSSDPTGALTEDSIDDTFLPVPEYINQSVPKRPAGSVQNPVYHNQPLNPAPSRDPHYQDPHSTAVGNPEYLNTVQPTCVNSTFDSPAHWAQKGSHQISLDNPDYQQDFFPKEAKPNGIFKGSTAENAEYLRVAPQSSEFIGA
Source text: as §1, §4
as §3, with “Kinase activity and inhibition are measured essentially by established protocols (Braunwalder et al., 1996). Briefly,” for “Briefly,”, “detector. The IC50 is determined by the concentration of compound that causes a 50% reduction in the amount of […] incorporated onto the substrate bound to the plate.” for “detector.”

Itk = target: T6, Itk (Homo sapiens, UniProt Q08881); assay: Kinase inhibition assay (33P transfer), Itk; details: Table 3; read-out: Itk-1
T6 construct: Kinases are expressed as either kinase domains or full length constructs; made in house
T6 sequence (Q08881 1-620): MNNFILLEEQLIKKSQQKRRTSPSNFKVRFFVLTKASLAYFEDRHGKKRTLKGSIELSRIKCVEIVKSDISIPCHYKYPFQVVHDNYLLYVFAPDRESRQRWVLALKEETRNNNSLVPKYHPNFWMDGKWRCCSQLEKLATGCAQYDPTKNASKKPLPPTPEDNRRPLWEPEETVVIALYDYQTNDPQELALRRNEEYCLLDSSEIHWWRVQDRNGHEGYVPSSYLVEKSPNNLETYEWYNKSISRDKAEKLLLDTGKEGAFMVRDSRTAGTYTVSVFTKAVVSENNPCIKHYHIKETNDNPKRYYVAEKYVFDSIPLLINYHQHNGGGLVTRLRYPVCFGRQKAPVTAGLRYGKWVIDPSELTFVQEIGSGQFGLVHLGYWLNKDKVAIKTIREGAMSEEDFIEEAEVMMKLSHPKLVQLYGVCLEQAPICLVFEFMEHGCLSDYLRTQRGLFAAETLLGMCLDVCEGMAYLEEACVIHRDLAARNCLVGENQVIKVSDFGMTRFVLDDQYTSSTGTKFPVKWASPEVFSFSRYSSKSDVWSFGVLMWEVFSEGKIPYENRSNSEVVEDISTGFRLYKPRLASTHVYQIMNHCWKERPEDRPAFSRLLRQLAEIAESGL
Source text: as §1, §4
as §3, with “Kinase activity and inhibition are measured essentially by established protocols (Braunwalder et al., 1996). Briefly,” for “Briefly,”, “detector. The IC50 is determined by the concentration of compound that causes a 50% reduction in the amount of […] incorporated onto the substrate bound to the plate.” for “detector.”

Lck = target: T7, Lck (Homo sapiens, UniProt P06239); assay: Kinase inhibition assay (33P transfer), Lck; details: Table 3; read-out: Lck-1
T7 construct: Kinases are expressed as either kinase domains or full length constructs; made in house
T7 sequence (P06239 whole entry, species assumed, the tested form may be a part): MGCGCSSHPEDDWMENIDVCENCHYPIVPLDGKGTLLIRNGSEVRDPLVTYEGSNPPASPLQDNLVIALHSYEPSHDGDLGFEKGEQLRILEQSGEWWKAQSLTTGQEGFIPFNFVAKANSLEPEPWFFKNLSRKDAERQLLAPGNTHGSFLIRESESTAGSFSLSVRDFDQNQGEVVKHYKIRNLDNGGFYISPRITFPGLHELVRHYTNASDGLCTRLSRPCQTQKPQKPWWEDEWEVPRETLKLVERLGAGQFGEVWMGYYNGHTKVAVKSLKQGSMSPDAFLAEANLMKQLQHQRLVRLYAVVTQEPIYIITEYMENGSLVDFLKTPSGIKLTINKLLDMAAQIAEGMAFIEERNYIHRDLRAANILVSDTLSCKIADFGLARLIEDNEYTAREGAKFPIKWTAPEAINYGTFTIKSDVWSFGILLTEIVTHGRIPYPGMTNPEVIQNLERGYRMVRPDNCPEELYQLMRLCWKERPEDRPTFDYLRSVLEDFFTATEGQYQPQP
Source text: as §1, §2, §3

| SMILES | pIC50 (Zap-70) | pIC50 (c-Met) | pIC50 (Kdr) | pIC50 (AKT) | pIC50 (EGFR) | pIC50 (Itk) | pIC50 (Lck) |
| --- | --- | --- | --- | --- | --- | --- | --- |
| COc1cc(Nc2ncnc(-c3ccnc(NCCCN)c3)n2)cc(OC)c1OC [Compound 45] | < 4.96 | < 4.96 | < 4.96 | < 4.96 | < 4.96 | < 4.96 | 5.23 to 6.01 |
| Brc1ccc(Nc2ncnc(-n3cccc3)n2)cc1 [Compound 272] | 4.96 to 5.12 | < 4.85 | < 4.85 | – | < 4.85 | < 4.85 | < 4.85 |
| COc1ccc(Nc2ncnc(-n3cccc3)n2)c(OC)c1 [Compound 273] | < 4.82 | < 4.82 | < 4.82 | – | < 4.82 | < 4.82 | < 4.82 |
| Clc1cc(Cl)cc(Nc2ncnc(-n3cccc3)n2)c1 [Compound 274] | < 4.83 | < 4.83 | 5.11 to 5.88 | – | < 4.83 | < 4.83 | < 4.83 |
| Clc1cccc(Nc2ncnc(-n3cccc3)n2)c1 [Compound 275] | < 4.78 | 4.78 to 4.89 | 5.05 to 5.83 | – | < 4.78 | < 4.78 | < 4.78 |
| Cc1ccc(Nc2ncnc(-n3cccc3)n2)cc1Cl [Compound 276] | < 4.80 | < 4.80 | 5.08 to 5.85 | – | < 4.80 | < 4.80 | < 4.80 |
| FC(F)(F)c1cccc(Nc2ncnc(-n3cccc3)n2)c1 [Compound 277] | < 4.83 | < 4.83 | 5.10 to 5.88 | – | < 4.83 | < 4.83 | < 4.83 |
| ClCc1ccccc1Nc1ncnc(-n2cccc2)n1 [Compound 278] | < 4.80 | < 4.80 | < 4.80 | – | < 4.80 | < 4.80 | < 4.80 |
| COc1ccccc1Nc1ncnc(-n2cccc2)n1 [Compound 279] | < 4.77 | < 4.77 | < 4.77 | – | < 4.77 | < 4.77 | < 4.77 |
| Clc1ccccc1Nc1ncnc(-n2cccc2)n1 [Compound 280] | < 4.78 | < 4.78 | < 4.78 | – | < 4.78 | < 4.78 | < 4.78 |
| Cc1cccc(Nc2ncnc(-n3cccc3)n2)c1C [Compound 281] | < 4.77 | < 4.77 | < 4.77 | – | < 4.77 | < 4.77 | < 4.77 |
| Cc1cc(Br)ccc1Nc1ncnc(-n2cccc2)n1 [Compound 282] | < 4.87 | 4.97 to 5.14 | < 4.87 | – | < 4.87 | < 4.87 | < 4.87 |
| FC(F)(F)c1ccc(Cl)c(Nc2ncnc(-n3cccc3)n2)c1 [Compound 283] | < 4.88 | < 4.88 | < 4.88 | – | < 4.88 | < 4.88 | < 4.88 |
| Fc1ccc(Nc2ncnc(-n3cccc3)n2)cc1 [Compound 284] | < 4.75 | < 4.75 | 4.75 to 4.86 | – | < 4.75 | < 4.75 | < 4.75 |
| CNc1ncnc(Nc2cc(OC)c(OC)c(OC)c2)n1 [Compound 409] | < 4.81 | < 4.81 | < 4.81 | < 4.81 | < 4.81 | < 4.81 | 4.81 to 4.92 |
| NC(=O)c1ccc(Nc2ncnc(-n3c(=O)[nH]c4ccccc43)n2)cc1 [Compound 419] | < 4.89 | < 4.89 | 5.16 to 5.94 | < 4.89 | < 4.89 | < 4.89 | < 4.89 |
| NC(=O)c1cccc(Nc2ncnc(-n3c(=O)[nH]c4ccccc43)n2)c1 [Compound 420] | < 4.89 | < 4.89 | 5.16 to 5.94 | < 4.89 | < 4.89 | < 4.89 | < 4.89 |
| COc1ncnc(Nc2cc(OC)c(OC)c(OC)c2)n1 [Compound 421] | < 4.81 | < 4.81 | < 4.81 | < 4.81 | < 4.81 | < 4.81 | < 4.81 |
| COc1cc(Nc2ncnc(-n3c(=O)oc4ccccc43)n2)cc(OC)c1OC [Compound 423] | < 4.94 | < 4.94 | 5.22 to 5.99 | 5.05 to 5.22 | 5.22 to 5.99 | < 4.94 | 5.22 to 5.99 |
| Nc1ncnc(Nc2ccc(F)cc2F)n1 [Compound 1014] | < 4.70 | < 4.70 | < 4.70 | – | < 4.70 | < 4.70 | < 4.70 |
| Nc1ncnc(Nc2cccc(C(F)(F)F)c2)n1 [Compound 1015] | < 4.75 | < 4.75 | < 4.75 | – | < 4.75 | < 4.75 | < 4.75 |
| Nc1ncnc(Nc2nc(-c3ccc(Cl)cc3)cs2)n1 [Compound 1016] | < 4.83 | < 4.83 | < 4.83 | – | < 4.83 | < 4.83 | < 4.83 |
| Cc1ccc(Nc2ncnc(N)n2)cc1 [Compound 1017] | < 4.65 | < 4.65 | < 4.65 | – | < 4.65 | < 4.65 | < 4.65 |
| Nc1ncnc(Nc2cccc(Cl)c2)n1 [Compound 1019] | < 4.69 | < 4.69 | 4.80 to 4.97 | – | < 4.69 | < 4.69 | < 4.69 |
| Nc1ncnc(Nc2nc(-c3ccccc3)cs2)n1 [Compound 1020] | < 4.78 | < 4.78 | < 4.78 | – | < 4.78 | < 4.78 | < 4.78 |
| Nc1ncnc(Nc2cc(Cl)ccc2O)n1 [Compound 1022] | < 4.72 | < 4.72 | < 4.72 | – | < 4.72 | < 4.72 | < 4.72 |
| Nc1ncnc(Nc2cccc(Nc3ncnc(N)n3)c2)n1 [Compound 1027] | < 4.82 | < 4.82 | < 4.82 | – | < 4.82 | < 4.82 | < 4.82 |

— patent US7074789B2, “Kinase inhibitors” (Amgen Inc., priority 1999, dated 2006)
